The assay deals with p4EBP1, pS6, pPRAS40 and pNDRG1 (TORC1/2 biomarkers). In words: Pharmacodynamics in paired tumour biopsies. In kind it is in vivo, human. The note with it: five patients with paired tumour samples; baseline vs cycle 1, week 2. How it is done: The tissue PK and PD of sapanisertib were investigated in skin and tumour biopsies. During dose escalation, 3-mm core skin biopsies were collected predose and on any day from 8–15 (3 h postdose) of cycle 1 for immunohistochemistry (IHC) assessment of mTORC1 downstream effects (p4EBP1, pS6) and pNDRG1 (Mosaic Laboratories, Lake Forest, CA). […] Archival tumour tissues for assessment of prognostic markers were collected at baseline.
During dose-escalation, the PD effect of sapanisertib on downstream effectors of TORC1 (p4EBP1 and pS6) and TORC2 (pPRAS40 and pNDRG1) was measured in skin-tissue biopsies from 88 patients collected at baseline and days 8–15 (3 h postdose) of cycle 1. […] PD data in tumour tissue were limited due to the small number of samples. For the five patients with paired tumour samples available for review (biopsies at baseline and cycle 1, week 2), the levels of p4EBP1, pS6, pPRAS40 and pNDRG1 decreased after sapanisertib treatment (Supplementary Fig. 4).

Consider `CC(C)n1nc(-c2ccc3oc(N)nc3c2)c2c(N)ncnc21` [Sapanisertib], for which the “Levels of p4EBP1, pS6, pPRAS40 and pNDRG1 in tumour” value is on record as “decreased”.

(Values after publication PMC7686313, “Phase 1 study of mTORC1/2 inhibitor sapanisertib (TAK-228) in advanced solid tumours, with an expansion phase in renal, endometrial or bladder cancer” (British Journal of Cancer, 2020).)
